pIC50: −log10 of the molar value. Counter-ions that a name gives are not always drawn.
Biological target: T1, cPLA2 crudely purified from the cytoplasm fraction of U937 (Homo sapiens, UniProt P47712)
T1 construct: cPLA2 crudely purified from the cytoplasm fraction of U937; endogenous in cells; host or cells: U937 cells (cytoplasm fraction, crude purification)
T1 sequence (P47712 1-749): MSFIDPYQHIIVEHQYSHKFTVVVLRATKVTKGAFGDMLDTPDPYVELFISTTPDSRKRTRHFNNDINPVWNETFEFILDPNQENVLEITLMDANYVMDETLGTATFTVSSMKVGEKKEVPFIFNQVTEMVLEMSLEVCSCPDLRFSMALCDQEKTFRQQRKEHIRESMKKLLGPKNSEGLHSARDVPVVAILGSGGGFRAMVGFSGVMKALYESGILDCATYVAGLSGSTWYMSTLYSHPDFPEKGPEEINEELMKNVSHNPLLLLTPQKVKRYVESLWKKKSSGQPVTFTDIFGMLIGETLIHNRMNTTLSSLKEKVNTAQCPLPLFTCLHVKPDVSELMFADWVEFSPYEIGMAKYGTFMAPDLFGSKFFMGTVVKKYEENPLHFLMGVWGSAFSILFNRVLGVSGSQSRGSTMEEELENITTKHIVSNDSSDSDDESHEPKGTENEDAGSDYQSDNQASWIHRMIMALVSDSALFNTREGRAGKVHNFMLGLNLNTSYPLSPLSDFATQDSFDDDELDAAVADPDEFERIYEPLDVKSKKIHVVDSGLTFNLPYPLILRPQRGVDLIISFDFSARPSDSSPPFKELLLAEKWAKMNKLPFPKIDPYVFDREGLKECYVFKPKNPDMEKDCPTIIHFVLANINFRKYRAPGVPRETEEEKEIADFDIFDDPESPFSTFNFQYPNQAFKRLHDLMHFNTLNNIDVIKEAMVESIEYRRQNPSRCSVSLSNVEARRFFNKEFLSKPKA
Experiment: Measurement of cPLA2 inhibitory activity (release of [14C]-arachidonic acid from phosphatidyl choline liposome)
Type: biochemical
Conditions: not given
Method: The cPLA2 inhibitory activity was measured based on the method described in the document [See H. Naraba et al., J. Immunol. 160, 2974-2982 (1998)] and modified in the following way.
A DMSO solution of the present invitation compounds was diluted to 2.5 times the final concentration with the assay buffer (4 mM CaCl2, 2 mM dithiothreitol, 150 mM NaCl, 50 mM HEPES buffer solution (pH7.5)) containing 0.55 mg/ml BSA. To 20 μl of this, cPLA2 crudely purified from the cytoplasm fraction of U937 was added in an amount of 10 μl after dilution by an assay buffer solution containing 0.55 mg/ml BSA. A liposome prepared by ultrasonically treating L-α-1-palmitoyl-2-[14C]arachidonyl-phosphatidyl choline (made by PerkinElmer) and adjusted by the assay buffer solution to a concentration of phosphatidyl choline of 10 μM was added and stirred in by an amount of 20 μl and the mixture was reacted at 37° C. for 60 minutes. The [^14C]-arachidonic acid released due to the reaction was extracted based on the method described in the documents [see V. P. Dole et al., J. Biol. Chem. 235, 2595 (1960)], was added to Lumaplate® (made by PerkinElmer), dried, then measured by Topcount® (made by PerkinElmer). Except for not adding the present invention compounds, the same procedure was performed as the above to obtain the enzyme control. Except for not adding the invention compounds and not adding the enzyme, the same procedure was followed as above to obtain a negative control. The inhibiting activity was expressed as a percent (%) of the value minus the negative control with respect to the value of the enzyme control minus the negative control. From this, the 50% inhibiting concentration (IC50, μM) was calculated.

Row | SMILES | pIC50
1 | Cc1c(C(=O)Cc2ccccc2)c2cc(CCC(=O)O)ccc2n1-c1ccccc1 [Example 45, 3-[2-methyl-1-phenyl-3-(phenylacetyl)-1H-indol-5-yl]propanoic acid] | 6.65
2 | O=C(O)CCc1ccc2c(c1)c(C(=O)Cc1ccc(Cl)cc1)cn2-c1ccccc1 [Example 57, 3-{3-[(4-chlorophenyl)acetyl]-1-phenyl-1H-indol-5-yl}propanoic acid] | 5.86
3 | O=C(O)/C=C/c1ccc2c(c1)c(C(=O)Cc1ccc(F)cc1)cn2-c1ccccc1 [Example 60, (2E)-3-{3-[(4-fluorophenyl)acetyl]-1-phenyl-1H-indol-5-yl}-2-propenoic acid] | 5.24

Same assay, conditions: cPLA2 from U937 cytoplasm fraction, [14C]arachidonyl-phosphatidyl choline liposome, 37° C., 60 minutes; read-out: cPLA2 inhibitory activity, 50% inhibiting concentration IC50

Row | SMILES | pIC50
4 | O=C(O)CCc1ccc2c(c1)c(CCc1ccccc1)cn2-c1cccc(C(=O)N2CCOCC2)c1 [Example 316, 3-{1-[3-(morpholin-4-ylcarbonyl)phenyl]-3-(2-phenylethyl)-1H-indol-5-yl}propanoic acid] | < 5.52
5 | Cc1ccc(-n2cc(CCc3ccccc3)c3cc(CCC(=O)O)ccc32)cc1 [Example 95, 3-[1-(4-methylphenyl)-3-(2-phenylethyl)-1H-indol-5-yl]propanoic acid 2-amino-2-(hydroxymethyl)propane-1,3-diol salt (1:1)] | 7.11
6 | CCOc1ccc(-n2cc(CCc3ccccc3)c3cc(CCC(=O)O)ccc32)cc1 [Example 112, 3-[1-(4-ethoxyphenyl)-3-(2-phenylethyl)-1H-indol-5-yl]propanoic acid 2-amino-2-(hydroxymethyl)propane-1,3-diol salt (1:1)] | 7.82
7 | COc1ccc(CCc2cn(-c3ccccc3)c3ccc(CCC(=O)O)cc23)cc1OC [Example 70, 3-{3-[2-(3,4-dimethoxyphenyl)ethyl]-1-phenyl-1H-indol-5-yl}propanoic acid 2-amino-2-(hydroxymethyl)propane-1,3-diol salt (1:1)] | 5.87
8 | COCc1ccc(-n2cc(CCc3ccccc3)c3cc(CCC(=O)O)ccc32)cc1 [Example 216, 3-{1-[4-(methoxymethyl)phenyl]-3-(2-phenylethyl)-1H-indol-5-yl}propanoic acid] | 7.07
9 | CC(O)c1ccc(-n2cc(CCc3ccccc3)c3cc(CCC(=O)O)ccc32)cc1 (stereo not drawn) [Example 295, 3-{1-[4-(1-hydroxyethyl)phenyl]-3-(2-phenylethyl)-1H-indol-5-yl}propanoic acid 2-amino-2-(hydroxymethyl)propane-1,3-diol salt (1:1)] | 6.12
10 | O=C(O)CCc1ccc2c(c1)c(CCc1ccccc1)cn2-c1ccc(OCc2ccccn2)cc1 [Example 245, 3-{3-(2-phenylethyl)-1-[4-(pyridin-2-ylmethoxy)phenyl]-1H-indol-5-yl}propanoic acid] | 8.00
11 | CC(O)c1ccc(-n2cc(CCc3ccccn3)c3cc(CCC(=O)O)ccc32)cc1 (stereo not drawn) [Example 304, 3-{1-[4-(1-hydroxyethyl)phenyl]-3-(2-pyridin-2-ylethyl)-1H-indol-5-yl}propanoic acid hydrochloride] | < 5.52
12 | O=C(O)CCc1ccc2c(c1)c(CCc1ccccc1)cn2-c1ccc(Cc2ccncc2)cc1 [Example 237, 3-{3-(2-phenylethyl)-1-[4-(pyridin-4-ylmethyl)phenyl]-1H-indol-5-yl}propanoic acid hydrochloride] | 6.71
13 | O=C(O)CCc1ccc2c(c1)c(CCc1ccccc1)cn2-c1ccc(SCc2ccccc2)cc1 [Example 335, 3-[1-(4-benzylthiophenyl)-3-(2-phenylethyl)-1H-indol-5-yl]propanoic acid] | 8.05
14 | CN(C)S(=O)(=O)c1ccc(-n2cc(CCc3ccccc3)c3cc(CCC(=O)O)ccc32)cc1 [Example 318, 3-[1-{4-[(dimethylamino)sulfonyl]phenyl}-3-(2-phenylethyl)-1H-indol-5-yl]propanoic acid] | 6.57
15 | O=C(O)CCc1ccc2c(c1)c(CCc1ccccc1)cn2-c1ccc(CN2CCCC2)cc1 [Example 306, 3-{3-(2-phenylethyl)-1-[4-(pyrrolidin-1-ylmethyl)phenyl]-1H-indol-5-yl}propanoic acid] | 6.06
16 | O=C(O)CCc1ccc2c(c1)c(CCc1ccccc1)cn2-c1ccc([N+](=O)[O-])cn1 [Example 134, 3-[1-(5-nitro-2-pyridinyl)-3-(2-phenylethyl)-1H-indol-5-yl]propanoic acid hydrochloride] | 6.68
17 | O=C(CCc1ccc2c(c1)c(CCc1ccccc1)cn2-c1ccccc1)C(F)(F)F [Example 113, 1,1,1-trifluoro-4-[1-phenyl-3-(2-phenylethyl)-1H-indol-5-yl]butan-2-one] | 5.94
18 | O=C(CCc1ccc2c(c1)c(CCc1ccccc1)cn2-c1ccccc1)Nc1nnn[nH]1 [Example 19, 3-[1-phenyl-3-(2-phenylethyl)-1H-indol-5-yl]-N-tetrazolylpropanamide] | 4.96
19 | O=C(O)CCc1ccc2c(c1)c(CCc1ccccc1)cn2-c1ccccn1 [Example 132, 3-[3-(2-phenylethyl)-1-(2-pyridinyl)-1H-indol-5-yl]propanoic acid hydrochloride] | 6.65
20 | O=C(O)CCc1ccc2c(c1)c(CCc1ccccc1)cn2-c1ccc(OCCN2CCCC2)cc1 [Example 222, 3-{3-(2-phenylethyl)-1-[4-(2-pyrrolidin-1-ylethoxy)phenyl]-1H-indol-5-yl}propanoic acid] | 7.31
21 | O=C(O)CCc1ccc2c(c1)c(CCc1ccccc1)cn2-c1cccc(Cl)c1 [Example 181, 3-[1-(3-chlorophenyl)-3-(2-phenylethyl)-1H-indol-5-yl]propanoic acid] | 6.86
22 | Cc1ccc(S(=O)(=O)NC(=O)CCc2ccc3c(c2)c(CCc2ccccc2)cn3-c2ccc(Oc3ccccc3)cc2)cc1 [Example 333] | < 5.52
23 | CCN(CC)c1ccc(-n2cc(CCc3ccccc3)c3cc(CCC(=O)O)ccc32)cc1 [Example 88, 3-{1-[4-(diethylamino)phenyl]-3-(2-phenylethyl)-1H-indol-5-yl}propanoic acid] | 6.85
24 | CCC(Cc1cn(-c2ccccc2)c2ccc(CCC(=O)O)cc12)c1ccccc1 (stereo not drawn) [Example 37, 3-[1-phenyl-3-(2-phenylbutyl)-1H-indol-5-yl]propanoic acid 2-amino-2-(hydroxymethyl)propane-1,3-diol salt (1:1)] | 5.84
25 | O=C(CCc1ccc2c(c1)c(CCc1ccccc1)cn2-c1ccccc1)NO [Example 21, N-hydroxy-3-[1-phenyl-3-(2-phenylethyl)-1H-indol-5-yl]propanamide] | 4.80
26 | COc1ccc(-n2cc(CCc3ccccc3)c3cc(CCC(=O)O)ccc32)cc1OC [Example 211, 3-[1-(3,4-dimethoxyphenyl)-3-(2-phenylethyl)-1H-indol-5-yl]propanoic acid] | 6.10
27 | O=C(O)CCc1ccc2c(c1)c(CCc1ccccn1)cn2-c1ccccc1 [Example 264, 3-[1-phenyl-3-(2-pyridin-2-ylethyl)-1H-indol-5-yl]propanoic acid] | 6.47
28 | O=C(O)CCc1ccc2c(c1)c(CCc1ccccc1)cn2-c1ccc(C(F)(F)F)cn1 [Example 205, 3-{3-(2-phenylethyl)-1-[5-(trifluoromethyl)pyridin-2-yl]-1H-indol-5-yl}propanoic acid] | 6.88
29 | O=C(O)CCc1ccc2c(c1)c(CCc1ccccc1)cn2-c1ccc2c(c1)OCCO2 [Example 233, 3-[1-(2,3-dihydro-1,4-benzodioxin-6-yl)-3-(2-phenylethyl)-1H-indol-5-yl]propanoic acid 2-amino-2-(hydroxymethyl)propane-1,3-diol salt (1:1)] | 7.09
30 | O=C(O)CCc1ccc2c(c1)c(CCc1ccccc1)cn2-c1ccc(OCCCO)cc1 [Example 328, 3-{1-[4-(3-hydroxypropoxy)phenyl]-3-(2-phenylethyl)-1H-indol-5-yl}propanoic acid 2-amino-2-(hydroxymethyl)propane-1,3-diol salt (1:1)] | 7.24

— patent US8293781B2, “Indole derivatives having cPLA2 inhibiting activity and applications and production methods of the same” (Daiichi Sankyo Company, Limited, priority 2007, dated 2012)
